# Assay: Adverse events graded by NCI CTCAE version 4.03, phase I/IIa study
# Type: in vivo
# Experimental: Part 1 included adult patients with HR^+/HER2^− advanced breast cancer or mBC (third- or fourth-line setting), locally recurrent/advanced or metastatic TNBC, or advanced platinum-resistant epithelial ovarian cancer/fallopian tube cancer/primary peritoneal cancer who received oral PF-06873600 at doses of 1 to 50 mg twice daily or oral PF-06873600 plus ET (letrozole or fulvestrant). Primary endpoints for part 1 dose escalation determined safety and tolerability to define dose-limiting toxicities (DLT), estimate the maximum tolerated dose, and select the recommended dose for expansion (RDE). Safety endpoints included adverse events (AE) characterized by type, frequency, severity [as graded by NCI Common Terminology Criteria for Adverse Events (CTCAE) version 4.03], timing, seriousness, and relationship to study therapy. Laboratory abnormalities were characterized by type, frequency, severity (as graded by NCI CTCAE version 4.03), timing, vital sign abnormalities, and heart rate–corrected QT interval (e.g., QTcF). Secondary endpoints included PK, preliminary antitumor activity as assessed using RECIST version 1.1, time-to-event endpoints including objective response rate (ORR), duration of response (DoR), progression-free survival (PFS), time to progression (TTP), and modulation of tumor CDK biomarkers [phosphorylated Rb (pRb), Ki67]. Exploratory endpoints included molecular profiling of tumor and ctDNA and the relationship to clinical outcome.
# AEs were graded by NCI CTCAE version 4.03.
# [1] = Part 2C 25 mg BID IR + Fulvestrant, N = 28
# [2] = parts 1 and 2, N = 151, all cycles
smiles,measurement,setting,value
C[C@@]1(O)CCC[C@H]1n1c(=O)c(C(F)F)cc2cnc(NC3CCN(S(C)(=O)=O)CC3)nc21 [PF-06873600],"Treatment-related TEAE, Headache, Grade 3/4",[1],0 n (%)
same,"Treatment-related TEAE, Headache, Grade 5",[1],0 n (%)
same,"Treatment-related TEAE, Headache, Total",[1],9 (32.1) n (%)
same,"Treatment-related TEAE, Leukopenia, Grade 1",[1],3 (10.7) n (%)
same,"Treatment-related TEAE, Leukopenia, Grade 2",[1],3 (10.7) n (%)
same,"Treatment-related TEAE, Leukopenia, Grade 3/4",[1],0 n (%)
same,"Treatment-related TEAE, Leukopenia, Grade 5",[1],0 n (%)
same,"Treatment-related TEAE, Leukopenia, Total",[1],6 (21.4) n (%)
same,"Treatment-related TEAE, Nausea, Grade 1",[1],12 (42.9 ) n (%)
same,"Treatment-related TEAE, Nausea, Grade 2",[1],7 (25.0) n (%)
same,"Treatment-related TEAE, Nausea, Grade 3/4",[1],0 n (%)
same,"Treatment-related TEAE, Nausea, Grade 5",[1],0 n (%)
same,"Treatment-related TEAE, Nausea, Total",[1],19 (67.9 ) n (%)
same,"Treatment-related TEAE, Neutropenia, Grade 1",[1],1 (3.6) n (%)
same,"Treatment-related TEAE, Neutropenia, Grade 2",[1],2 (7.1) n (%)
same,"Treatment-related TEAE, Neutropenia, Grade 3/4",[1],6 (21.4) n (%)
same,"Treatment-related TEAE, Neutropenia, Grade 5",[1],0 n (%)
same,"Treatment-related TEAE, Neutropenia, Total",[1],9 (32.1) n (%)
same,"Treatment-related TEAE, Thrombocytopenia, Grade 1",[1],1 (3.6) n (%)
same,"Treatment-related TEAE, Thrombocytopenia, Grade 2",[1],0 n (%)
same,"Treatment-related TEAE, Thrombocytopenia, Grade 3/4",[1],1 (3.6) n (%)
same,"Treatment-related TEAE, Thrombocytopenia, Grade 5",[1],0 n (%)
same,"Treatment-related TEAE, Thrombocytopenia, Total",[1],2 (7.1) n (%)
same,"Treatment-related TEAE, Vomiting, Grade 1",[1],8 (28.6) n (%)
same,"Treatment-related TEAE, Vomiting, Grade 2",[1],4 (14.3) n (%)
same,"Treatment-related TEAE, Vomiting, Grade 3/4",[1],0 n (%)
same,"Treatment-related TEAE, Vomiting, Grade 5",[1],0 n (%)
same,"Treatment-related TEAE, Vomiting, Total",[1],12 (42.9 ) n (%)
same,"All-causality SAE, abdominal pain","parts 1 and 2, 151 patients",2.0%
same,"All-causality SAE, colitis","parts 1 and 2, 151 patients",2.0%
same,"All-causality SAE, febrile neutropenia","parts 1 and 2, 151 patients",3.3%
same,"All-causality SAE, hypotension","parts 1 and 2, 151 patients",2.0%
same,"All-causality TEAE, alopecia","parts 1 and 2, 151 patients",28.5%
same,"All-causality TEAE, anemia","parts 1 and 2, 151 patients",44.4%
same,"All-causality TEAE, constipation","parts 1 and 2, 151 patients",25.2%
same,"All-causality TEAE, diarrhea","parts 1 and 2, 151 patients",22.5%
same,"All-causality TEAE, fatigue","parts 1 and 2, 151 patients",43.7%
same,"All-causality TEAE, headache","parts 1 and 2, 151 patients",29.1%
same,"All-causality TEAE, leukopenia","parts 1 and 2, 151 patients",25.8%
same,"All-causality TEAE, nausea","parts 1 and 2, 151 patients",62.9%
same,"All-causality TEAE, neutropenia","parts 1 and 2, 151 patients",37.7%
same,"All-causality TEAE, vomiting","parts 1 and 2, 151 patients",35.8%
same,"All-causality TEAEs, any, patients","parts 1 and 2, 151 patients",97.4%
same,"All-causality serious adverse events (SAE), patients","parts 1 and 2, 151 patients",22.5%
same,"Grade 3 all-causality TEAEs, patients","parts 1 and 2, 151 patients",34.4%
same,"Grade 3 and grade 4 all-causality TEAEs, patients","parts 1 and 2, 151 patients",45.7%
same,"Grade 3 treatment-related TEAEs, patients","parts 1 and 2, 151 patients",25.8%
same,"Grade 4 all-causality TEAEs, patients","parts 1 and 2, 151 patients",11.3%
same,"Grade 4 treatment-related TEAEs, patients","parts 1 and 2, 151 patients",9.9%
same,"TEAE leading to dose interruptions, anemia","parts 1 and 2, 151 patients",11.3%
same,"TEAE leading to dose interruptions, nausea","parts 1 and 2, 151 patients",11.3%
same,"TEAE leading to dose interruptions, neutropenia","parts 1 and 2, 151 patients",17.9%
same,"TEAE leading to dose reductions, fatigue","parts 1 and 2, 151 patients",5.3%
same,"TEAE leading to dose reductions, nausea","parts 1 and 2, 151 patients",4.6%
same,"TEAE leading to dose reductions, neutropenia","parts 1 and 2, 151 patients",6.0%
same,"TEAEs leading to discontinuation, patients","parts 1 and 2, 151 patients",7.3%
same,"TEAEs leading to dose interruptions, patients","parts 1 and 2, 151 patients",51.7%
same,"TEAEs leading to dose reductions, patients","parts 1 and 2, 151 patients",21.2%
same,"Treatment-related SAE, colitis","parts 1 and 2, 151 patients",1.3%
same,"Treatment-related SAE, febrile neutropenia","parts 1 and 2, 151 patients",3.3%
same,"Treatment-related SAE, neutropenia","parts 1 and 2, 151 patients",1.3%
same,"Treatment-related SAE, stomatitis","parts 1 and 2, 151 patients",1.3%
same,"Treatment-related SAEs, patients","parts 1 and 2, 151 patients",8.6%
same,"Treatment-related TEAE, Alopecia, Grade 1",[2],21 (13.9) n (%)
same,"Treatment-related TEAE, Alopecia, Grade 2",[2],21 (13.9) n (%)
same,"Treatment-related TEAE, Alopecia, Grade 3/4",[2],0 n (%)
same,"Treatment-related TEAE, Alopecia, Grade 5",[2],0 n (%)
same,"Treatment-related TEAE, Alopecia, Total",[2],42 (27.8) n (%)
same,"Treatment-related TEAE, Anemia, Grade 1",[2],13 (8.6) n (%)
same,"Treatment-related TEAE, Anemia, Grade 2",[2],28 (18.5) n (%)
same,"Treatment-related TEAE, Anemia, Grade 3/4",[2],21 (13.9) n (%)
same,"Treatment-related TEAE, Anemia, Grade 5",[2],0 n (%)
same,"Treatment-related TEAE, Anemia, Total",[2],62 (41.1) n (%)
same,"Treatment-related TEAE, Any AE, Grade 1",[2],27 (17.9) n (%)
same,"Treatment-related TEAE, Any AE, Grade 2",[2],55 (36.4) n (%)
same,"Treatment-related TEAE, Any AE, Grade 3/4",[2],54 (35.8) n (%)
same,"Treatment-related TEAE, Any AE, Grade 5",[2],2 (1.3) n (%)
same,"Treatment-related TEAE, Any AE, Total",[2],138 (91.4) n (%)
same,"Treatment-related TEAE, Constipation, Grade 1",[2],13 (8.6) n (%)
same,"Treatment-related TEAE, Constipation, Grade 2",[2],10 (6.6) n (%)
same,"Treatment-related TEAE, Constipation, Grade 3/4",[2],0 n (%)
same,"Treatment-related TEAE, Constipation, Grade 5",[2],0 n (%)
same,"Treatment-related TEAE, Constipation, Total",[2],23 (15.2) n (%)
same,"Treatment-related TEAE, Diarrhea, Grade 1",[2],21 (13.9) n (%)
same,"Treatment-related TEAE, Diarrhea, Grade 2",[2],4 (2.6) n (%)
same,"Treatment-related TEAE, Diarrhea, Grade 3/4",[2],2 (1.3) n (%)
same,"Treatment-related TEAE, Diarrhea, Grade 5",[2],0 n (%)
same,"Treatment-related TEAE, Diarrhea, Total",[2],27 (17.9) n (%)
same,"Treatment-related TEAE, Fatigue, Grade 1",[2],23 (15.2) n (%)
same,"Treatment-related TEAE, Fatigue, Grade 2",[2],25 (16.6) n (%)
same,"Treatment-related TEAE, Fatigue, Grade 3/4",[2],12 (7.9) n (%)
same,"Treatment-related TEAE, Fatigue, Grade 5",[2],0 n (%)
same,"Treatment-related TEAE, Fatigue, Total",[2],60 (39.7) n (%)
same,"Treatment-related TEAE, Headache, Grade 1",[2],28 (18.5) n (%)
same,"Treatment-related TEAE, Headache, Grade 2",[2],4 (2.6) n (%)
same,"Treatment-related TEAE, Headache, Grade 3/4",[2],0 n (%)
same,"Treatment-related TEAE, Headache, Grade 5",[2],0 n (%)
same,"Treatment-related TEAE, Headache, Total",[2],32 (21.2) n (%)
same,"Treatment-related TEAE, Leukopenia, Grade 1",[2],5 (3.3) n (%)
same,"Treatment-related TEAE, Leukopenia, Grade 2",[2],23 (15.2) n (%)
same,"Treatment-related TEAE, Leukopenia, Grade 3/4",[2],9 (6.0) n (%)
same,"Treatment-related TEAE, Leukopenia, Grade 5",[2],0 n (%)
same,"Treatment-related TEAE, Leukopenia, Total",[2],37 (24.5) n (%)
same,"Treatment-related TEAE, Nausea, Grade 1",[2],65 (43.0) n (%)
same,"Treatment-related TEAE, Nausea, Grade 2",[2],26 (17.2) n (%)
same,"Treatment-related TEAE, Nausea, Grade 3/4",[2],1 (0.7) n (%)
same,"Treatment-related TEAE, Nausea, Grade 5",[2],0 n (%)
same,"Treatment-related TEAE, Nausea, Total",[2],92 (60.9) n (%)
same,"Treatment-related TEAE, Neutropenia, Grade 1",[2],6 (4.0) n (%)
same,"Treatment-related TEAE, Neutropenia, Grade 2",[2],19 (12.6) n (%)
same,"Treatment-related TEAE, Neutropenia, Grade 3/4",[2],31 (20.5) n (%)
same,"Treatment-related TEAE, Neutropenia, Grade 5",[2],0 n (%)
same,"Treatment-related TEAE, Neutropenia, Total",[2],56 (37.1) n (%)
same,"Treatment-related TEAE, Thrombocytopenia, Grade 1",[2],16 (10.6) n (%)
same,"Treatment-related TEAE, Thrombocytopenia, Grade 2",[2],4 (2.6) n (%)
same,"Treatment-related TEAE, Thrombocytopenia, Grade 3/4",[2],9 (6.0) n (%)
same,"Treatment-related TEAE, Thrombocytopenia, Grade 5",[2],0 n (%)
same,"Treatment-related TEAE, Thrombocytopenia, Total",[2],29 (19.2) n (%)
same,"Treatment-related TEAE, Vomiting, Grade 1",[2],38 (25.2) n (%)
same,"Treatment-related TEAE, Vomiting, Grade 2",[2],12 (7.9) n (%)
same,"Treatment-related TEAE, Vomiting, Grade 3/4",[2],1 (0.7) n (%)
same,"Treatment-related TEAE, Vomiting, Grade 5",[2],0 n (%)
same,"Treatment-related TEAE, Vomiting, Total",[2],51 (33.8) n (%)
